pIC50: −log10 of the molar value.
Tested on: P493-6 (myc "on") cells
Assay: Cell Proliferation Assay
Assay type: cell-based
Details: read-out: Cell prolif P493 72 h IC50; P493-6 cells, 72 h incubation
Procedure: P493-6 (myc “on”) cells were maintained in growth media (RPMI-1640, 10% FBS, 2 mM glutamine, 100 units/ml Penicillin and 100 μg/ml streptomycin) at 37° C. with 5% CO2. For compound assay, P493-6 cells were plated in 96-well V-bottom plates on the day of compound addition in 50 μl of growth media at a cell density of 200,000 cells/ml (10,000 cells/well). Compounds were serially diluted in 100% DMSO at 200-times the final concentration. Compounds were diluted 100-fold into growth media and then 50 μl of this mixture was added to cell plates making the final concentration of DMSO 0.5%. Cells were incubated with compound for 72 hrs at 37° C. with 5% CO2 and analyzed for antiproliferative effects either by Cell Titer Glo (Promega) or FACS analysis using the Viacount (Millipore) kit on the Guava instrument.

COc1ccc(OC(F)(F)F)cc1CC(=O)Nc1ccc(CCCCc2nnc(NC(=O)Cc3ccccn3)s2)nn1 [Cmpd 717]
pIC50: 7.72

From US10278968B2, “Combination therapy with glutaminase inhibitors” (Calithera Biosciences, Inc., priority 2016, dated 2019)
